Source: patent US9765105B2, “Macrolide compound” (Pulike Biological Engineering, Inc., priority 2013, dated 2017)

Legend:
Experiment in all cases: in vitro susceptibility, MIC by mini broth dilution
Type in all cases: cell-based
[1] = test system: Staphylococcus aureus CVCC26003; details: strain CVCC26003
Summary of the method: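 MICs were determined by mini broth dilution under NCCLS standards in CAMHB, using revived S. aureus CVCC26003 subcultured 20 h at 35° C. Compounds were two-fold serially diluted in DMSO across 11 wells, with duplicate rows. Bacterial suspension was diluted 1:200 in medium before inoculation.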

[2] = test system: Streptococcus equines CVCC556; details: strain CVCC556
Summary of the method: (§1)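 MICs determined by mini broth dilution per NCCLS (now CLSI) standards. Strains revived from −20° C, subcultured twice on solid medium at 35° C for 20 h; compounds two-fold serially diluted in DMSO over 11 gradients, duplicate rows, bacterial suspension diluted 1:200 in liquid medium.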

[3] = test system: Actinobacillus pleuropneumoniae CVCC262; details: strain CVCC262
Summary of the method: as §1

Haemophilus parasuis = test system: Haemophilus parasuis
Summary of the method: as §1

[4] = test system: Pasteurella multocida CVCC399; details: strain CVCC399
Summary of the method: as §1

Structure (SMILES) | MIC values, Staphylococcus aureus CVCC26003 [1] | MIC values, Streptococcus equines CVCC556 [2] | MIC values, Actinobacillus pleuropneumoniae CVCC262 [3] [ug/mi] | MIC values, Haemophilus parasuis (Haemophilus parasuis) | MIC values, Pasteurella multocida CVCC399 [4]
CCCN1C[C@H](C)[C@@H](O)[C@](C)(O)[C@@H](CC)OC(=O)[C@H](C)[C@@H](O[C@H]2C[C@@](C)(OC)[C@](O)(CNCCCN3CCOCC3)[C@H](C)O2)[C@H](C)[C@@H](O[C@@H]2O[C@H](C)C[C@H](N(C)C)[C@H]2O)[C@](C)(O)C[C@H]1C [syzx-169] | 0.25 ug/mi | 0.25 ug/mi | 0.25 | 0.25 ug/mi | 0.5 ug/mi
CC[C@H]1OC(=O)[C@H](C)[C@@H](O[C@H]2C[C@@](C)(OC)[C@](O)(CNCc3ccccc3F)[C@H](C)O2)[C@H](C)[C@@H](O[C@@H]2O[C@H](C)C[C@H](N(C)C)[C@H]2O)[C@](C)(O)C[C@@H](C)NC[C@H](C)[C@@H](O)[C@]1(C)O [syzx-92, (2R,3S,4R,5S,8R,10R,11R,12S,13S,14R)-13-[(2,6-dideoxy-3-C-methyl-3-O-methyl-4-C-[(2-fluorobenzyl-amino)-methyl]-α-L-ribopyranosyl)oxy]-2-ethyl-3,4,10-trihydroxy-3,5,10,12,14-hexamethyl-11-[[3,4,6-trideoxy-3-(dimethylamino)-β-D-xylo-hexopyranosy]oxy]-1-oxa-7-azacyclopentadecan-15-one] | 1 ug/mi | 0.25 ug/mi | 0.5 | 0.5 ug/mi | 2 ug/mi
CCCN1C[C@H](C)[C@@H](O)[C@](C)(O)[C@@H](CC)OC(=O)[C@H](C)[C@@H](O[C@H]2C[C@@](C)(OC)[C@](O)(CNCc3cccc(OC)c3)[C@H](C)O2)[C@H](C)[C@@H](O[C@@H]2O[C@H](C)C[C@H](N(C)C)[C@H]2O)[C@](C)(O)C[C@H]1C [syzx-135] | 1 ug/mi | 0.5 ug/mi | 1 | 0.5 ug/mi | 2 ug/mi
CCCN1C[C@H](C)[C@@H](O)[C@](C)(O)[C@@H](CC)OC(=O)[C@H](C)[C@@H](O[C@H]2C[C@@](C)(OC)[C@](O)(CN3CCOCC3)[C@H](C)O2)[C@H](C)[C@@H](O[C@@H]2O[C@H](C)C[C@H](N(C)C)[C@H]2O)[C@](C)(O)C[C@H]1C [syzx-204] | 4 ug/mi | 0.5 ug/mi | 4 | 4 ug/mi | 4 ug/mi
C=CCN(CC=C)C[C@]1(O)[C@H](C)O[C@@H](O[C@H]2[C@H](C)[C@@H](O[C@@H]3O[C@H](C)C[C@H](N(C)C)[C@H]3O)[C@](C)(O)C[C@@H](C)N(CCC)C[C@H](C)[C@@H](O)[C@](C)(O)[C@@H](CC)OC(=O)[C@@H]2C)C[C@@]1(C)OC [syzx-214] | 4 ug/mi | 0.25 ug/mi | 2 | 2 ug/mi | 8 ug/mi
CCC1OC(=O)C(C)C(OC2CC(C)(OC)C(O)(CNCNCc3ccc(C=O)cc3)C(C)O2)C(C)C(OC2OC(C)CC(N(C)C)C2O)C(C)(O)CC(C)NCC(C)C(O)C1(C)O [syzx-39, (2R,3S,4R,5S,8R,10R,11R,12S,13S,14R)-13-[(2,6-dideoxy-3-C-methyl-3-O-methyl-4-C-[[[(4-formyl-benzyl-amino)-methyl]amino]-methyl]-α-L-ribopyranosyl)oxy]-2-ethyl-3,4,10-trihydroxy-3,5,8,10,12,14-hexamethyl-11-[[3,4,6-trideoxy-3-(dimethylamino)-β-D-xylo-hexopyranosy]oxy]-1-oxa-7-azacyclopentadecan-15-one] | 0.25 ug/mi | 0.5 ug/mi | 0.25 | 0.25 ug/mi | 0.5 ug/mi
CC[C@H]1OC(=O)[C@H](C)[C@@H](O[C@H]2C[C@@](C)(OC)[C@](O)(Cn3ccnc3)[C@H](C)O2)[C@H](C)[C@@H](O[C@@H]2O[C@H](C)C[C@H](N(C)C)[C@H]2O)[C@](C)(O)C[C@@H](C)NC[C@H](C)[C@@H](O)[C@]1(C)O [syzx-9, (2R,3S,4R,5S,8R,10R,11R,12S,13S,14R)-13-[(2,6-dideoxy-3-C-methyl-3-O-methyl-4-C-[(imidazolyl)methyl]-α-L-ribopyranosyl)oxy]-2-ethyl-3,4,10-trihydroxy-3,5,8,10,12,14-hexamethyl-11-[[3,4,6-trideoxy-3-(dimethylamino)-β-D-xylo-hexopyranosy]oxy]-1-oxa-7-azacyclopentadecan-15-one] | ≦0.25 ug/mi | ≦0.25 ug/mi | 0.5 | ≦0.25 ug/mi | ≦0.25 ug/mi
CCCC(C)NC[C@]1(O)[C@H](C)O[C@@H](O[C@H]2[C@H](C)[C@@H](O[C@@H]3O[C@H](C)C[C@H](N(C)C)[C@H]3O)[C@](C)(O)C[C@@H](C)NC[C@H](C)[C@@H](O)[C@](C)(O)[C@@H](CC)OC(=O)[C@@H]2C)C[C@@]1(C)OC (some centres unmarked) [syzx-63] | 0.5 ug/mi | ≦0.25 ug/mi | 0.5 | ≦0.25 ug/mi | ≦0.25 ug/mi
C#CCNC[C@]1(O)[C@H](C)O[C@@H](O[C@H]2[C@H](C)[C@@H](O[C@@H]3O[C@H](C)C[C@H](N(C)C)[C@H]3O)[C@](C)(O)C[C@@H](C)N(CCC)C[C@H](C)[C@@H](O)[C@](C)(O)[C@@H](CC)OC(=O)[C@@H]2C)C[C@@]1(C)OC [syzx-140] | 0.25 ug/mi | 0.25 ug/mi | 0.25 | 0.25 ug/mi | 1 ug/mi
CC[C@H]1OC(=O)[C@H](C)[C@@H](O[C@H]2C[C@@](C)(OC)[C@](O)(CNc3ccccc3F)[C@H](C)O2)[C@H](C)[C@@H](O[C@@H]2O[C@H](C)C[C@H](N(C)C)[C@H]2O)[C@](C)(O)C[C@@H](C)NC[C@H](C)[C@@H](O)[C@]1(C)O [syzx-95, (2R,3S,4R,5S,8R,10R,11R,12S,13S,14R)-13-[(2,6-dideoxy-3-C-methyl-3-O-methyl-4-C-[(2-fluoro-phenyl-amino)-methyl]-α-L-ribopyranosyl)oxy]-2-ethyl-3,4,10-trihydroxy-3,5,8,10,12,14-hexamethyl-11-[[3,4,6-trideoxy-3-(dimethylamino)-β-D-xylo-hexopyranosy]oxy]-1-oxa-7-azacyclopentadecan-15-one] | 2 ug/mi | 0.5 ug/mi | 2 | 2 ug/mi | 2 ug/mi
CCCN1C[C@H](C)[C@@H](O)[C@](C)(O)[C@@H](CC)OC(=O)[C@H](C)[C@@H](O[C@H]2C[C@@](C)(OC)[C@](O)(CN(C)CCO)[C@H](C)O2)[C@H](C)[C@@H](O[C@@H]2O[C@H](C)C[C@H](N(C)C)[C@H]2O)[C@](C)(O)C[C@H]1C [syzx-239] | 4 ug/mi | 0.25 ug/mi | 4 | 2 ug/mi | 8 ug/mi
CCCN1C[C@H](C)[C@@H](O)[C@](C)(O)[C@@H](CC)OC(=O)[C@H](C)[C@@H](O[C@H]2C[C@@](C)(OC)[C@](O)(CNOCc3ccccc3)[C@H](C)O2)[C@H](C)[C@@H](O[C@@H]2O[C@H](C)C[C@H](N(C)C)[C@H]2O)[C@](C)(O)C[C@H]1C [syzx-182] | 1 ug/mi | 0.5 ug/mi | 0.5 | 0.5 ug/mi | 4 ug/mi
CCCN1C[C@H](C)[C@@H](O)[C@](C)(O)[C@@H](CC)OC(=O)[C@H](C)[C@@H](O[C@H]2C[C@@](C)(OC)[C@](O)(CNc3ccc(Cl)cc3Cl)[C@H](C)O2)[C@H](C)[C@@H](O[C@@H]2O[C@H](C)C[C@H](N(C)C)[C@H]2O)[C@](C)(O)C[C@H]1C [syzx-231] | 0.25 ug/mi | 0.25 ug/mi | 0.25 | 0.25 ug/mi | 0.5 ug/mi
